Test results: US20230026163A1, “ANTICANCER COMPOUND AND MEDICAL USE THEREOF” (ASCENTAWITS PHARMACEUTICALS, LTD., priority 2019, published 2023)

Assay: Hepatomicrosome stability, human
Conditions: for Remaining percentage after 30 minutes: Human, 2 μM
Method: 1a) With NADPH: 10 μL of 20 mg/mL of hepatomicrosome and 40 μL of 10 mM of NADPH were added to medium. The final concentrations of hepatomicrosome and NADPH were 0.5 mg/mL and 1 mM, respectively.
1b) Without NADPH: 10 μL of 20 mg/mL hepatomicrosome and 40 μL of ultra-pure H2O were added to medium. The final concentration of hepatomicrosome was 0.5 mg/mL.
3) 3) Aliquots of 50 μL from the reaction solutions at 0 minute and 30 minutes were taken. The reaction solutions were stopped by adding 4 volumes of cold acetonitrile and 4 internal standards (IS internal standard, 100 nM of Alprazolam, 200 nM of caffeine, 200 nM of Labetalol, and 2 μM of Ketoprofen) to stop the reaction solution. The samples were centrifuged at 3,220 g for 40 minutes. Aliquots of 100 μL of the supernatants were mixed with 100 μL of ultra-pure H2O. Then, the mixtures were used for LC-MS/MS analysis. All experiments were performed in duplicate. The test results were as follow.

O=[N+]([O-])c1ccc(C(OP(=O)(N2CC2)N2CC2)C(F)(F)F)c2ccccc12 (stereo not drawn) [Compound 01]
Remaining percentage after 30 minutes (with NADPH): 96.39% | Remaining percentage after 30 minutes (without NADPH): 82.15% | Stability in hepatomicrosomes (conclusion) (human): relatively stable
